# Tests used:
# Experiment in all cases: radiometric filter-binding kinase assay, Kinase HotSpot
# Settings in all cases: compound 0.5 µM; ATP 10 µM
# ABL1 (human) = ABL1 (human) (UniProt P00519)
# ACVR1 (human) = ACVR1 (human) (UniProt Q04771)
# ADRBK2 (human) = ADRBK2 (human) (UniProt P35626)
# AKT3 (human) = AKT3 (human) (UniProt Q9Y243)
# BLK (human) = BLK (human) (UniProt P51451)
# BRSK1 (human) = BRSK1 (human) (UniProt Q8TDC3)
# CAMK1G (human) = CAMK1G (human) (UniProt Q96NX5)
# CDC42BPB (human) = CDC42BPB (human) (UniProt Q9Y5S2)
# CDK3 CCNE1 (human) = CDK3 CCNE1 (human) (UniProt Q00526+P24864)
# CDK5 CDK5R1 p25 (human) = CDK5 CDK5R1 p25 (human) (UniProt Q00535+Q15078)
# CDK7 CCNH MNAT1 (human) = CDK7 CCNH MNAT1 (human) (UniProt P50613+P51948+P51946)
# CSNK1D (human) = CSNK1D (human) (UniProt P48730)
# CSNK1G2 (human) = CSNK1G2 (human) (UniProt P78368)
# CSNK2A1 (human) = CSNK2A1 (human) (UniProt P68400)
# DAPK3 (human) = DAPK3 (human) (UniProt O43293)
# DYRK1A (human) = DYRK1A (human) (UniProt Q13627)
# DYRK1B (human) = DYRK1B (human) (UniProt Q9Y463)
# DYRK4 (human) = DYRK4 (human) (UniProt Q9NR20)
# EPHA5 (human) = EPHA5 (human) (UniProt P54756)
# EPHA7 (human) = EPHA7 (human) (UniProt Q15375)
# FGFR4 (human) = FGFR4 (human) (UniProt P22455)
# FLT3 (human) = FLT3 (human) (UniProt P36888)
# GRK4 (human) = GRK4 (human) (UniProt P32298)
# IGF1R (human) = IGF1R (human) (UniProt P08069)
# MAP4K5 (human) = MAP4K5 (human) (UniProt Q9Y4K4)
# MAPK11 (human) = MAPK11 (human) (UniProt Q15759)
# MYLK2 (human) = MYLK2 (human) (UniProt Q9H1R3)
# NEK2 (human) = NEK2 (human) (UniProt P51955)
# NEK3 (human) = NEK3 (human) (UniProt P51956)
# PBK (human) = PBK (human) (UniProt Q96KB5)
# PLK3 (human) = PLK3 (human) (UniProt Q9H4B4)
# PRKCB2 (human) = PRKCB2 (human) (UniProt P05771)
# RIPK2 (human) = RIPK2 (human) (UniProt O43353)
# ROS1 (human) = ROS1 (human) (UniProt P08922)
# RPS6KA2 KD1 KD2 (human) = RPS6KA2 KD1 KD2 (human) (UniProt Q15349)
# RPS6KA5 KD2 (human) = RPS6KA5 KD2 (human) (UniProt O75582)
# SGK3 (human) = SGK3 (human) (UniProt Q96BR1)
# SIK2 (human) = SIK2 (human) (UniProt Q9H0K1)
# TLK2 (human) = TLK2 (human) (UniProt Q86UE8)
# TSSK1B (human) = TSSK1B (human) (UniProt Q9BXA7)
# WEE1 (human) = WEE1 (human) (UniProt P30291)
# Sequence of MAPK11 (human) (Q15759 whole entry, looked up): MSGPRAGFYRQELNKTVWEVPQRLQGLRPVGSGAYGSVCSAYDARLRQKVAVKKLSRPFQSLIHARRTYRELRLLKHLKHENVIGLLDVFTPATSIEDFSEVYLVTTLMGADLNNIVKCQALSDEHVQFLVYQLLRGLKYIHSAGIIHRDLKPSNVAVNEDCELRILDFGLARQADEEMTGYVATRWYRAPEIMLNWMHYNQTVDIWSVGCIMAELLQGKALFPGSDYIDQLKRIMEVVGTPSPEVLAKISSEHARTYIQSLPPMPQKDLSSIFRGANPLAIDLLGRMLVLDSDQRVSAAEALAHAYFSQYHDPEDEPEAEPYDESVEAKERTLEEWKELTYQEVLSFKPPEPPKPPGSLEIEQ
# Sequence of PRKCB2 (human) (P05771 whole entry, looked up): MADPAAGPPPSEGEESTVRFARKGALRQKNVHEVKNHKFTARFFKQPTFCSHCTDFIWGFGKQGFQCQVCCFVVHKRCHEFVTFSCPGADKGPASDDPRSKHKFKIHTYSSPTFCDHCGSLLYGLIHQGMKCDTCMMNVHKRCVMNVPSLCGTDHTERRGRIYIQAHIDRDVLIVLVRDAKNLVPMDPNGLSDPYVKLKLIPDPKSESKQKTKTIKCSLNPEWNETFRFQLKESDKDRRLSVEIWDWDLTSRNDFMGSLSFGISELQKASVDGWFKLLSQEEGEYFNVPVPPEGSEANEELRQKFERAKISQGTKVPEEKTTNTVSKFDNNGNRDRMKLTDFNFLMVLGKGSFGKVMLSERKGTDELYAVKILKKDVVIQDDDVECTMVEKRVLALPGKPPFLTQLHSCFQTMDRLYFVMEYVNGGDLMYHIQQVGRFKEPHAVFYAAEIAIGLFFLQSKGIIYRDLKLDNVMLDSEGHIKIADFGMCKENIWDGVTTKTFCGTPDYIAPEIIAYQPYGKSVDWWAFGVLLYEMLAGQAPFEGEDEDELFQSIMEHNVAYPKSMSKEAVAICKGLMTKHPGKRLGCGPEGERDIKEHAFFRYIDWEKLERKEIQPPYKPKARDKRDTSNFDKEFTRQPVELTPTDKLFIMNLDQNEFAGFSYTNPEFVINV
# Sequence of PLK3 (human) (Q9H4B4 whole entry, looked up): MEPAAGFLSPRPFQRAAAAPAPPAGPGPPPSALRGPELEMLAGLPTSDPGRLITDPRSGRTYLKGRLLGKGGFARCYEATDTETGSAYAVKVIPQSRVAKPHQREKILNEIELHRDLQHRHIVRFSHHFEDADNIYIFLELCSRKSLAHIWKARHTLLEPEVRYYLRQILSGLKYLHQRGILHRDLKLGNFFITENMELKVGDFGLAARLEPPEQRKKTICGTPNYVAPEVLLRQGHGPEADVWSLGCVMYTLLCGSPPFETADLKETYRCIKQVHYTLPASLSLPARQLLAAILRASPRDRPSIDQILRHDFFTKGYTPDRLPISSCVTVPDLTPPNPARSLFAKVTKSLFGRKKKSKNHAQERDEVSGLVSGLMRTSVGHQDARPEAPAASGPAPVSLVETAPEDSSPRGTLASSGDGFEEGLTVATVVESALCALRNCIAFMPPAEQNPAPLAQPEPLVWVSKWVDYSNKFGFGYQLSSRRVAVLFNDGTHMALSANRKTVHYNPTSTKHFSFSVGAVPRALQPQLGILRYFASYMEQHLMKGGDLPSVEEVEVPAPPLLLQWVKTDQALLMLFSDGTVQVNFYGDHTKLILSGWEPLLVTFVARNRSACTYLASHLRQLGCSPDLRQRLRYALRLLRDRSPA
# Sequence of SIK2 (human) (Q9H0K1 whole entry, looked up): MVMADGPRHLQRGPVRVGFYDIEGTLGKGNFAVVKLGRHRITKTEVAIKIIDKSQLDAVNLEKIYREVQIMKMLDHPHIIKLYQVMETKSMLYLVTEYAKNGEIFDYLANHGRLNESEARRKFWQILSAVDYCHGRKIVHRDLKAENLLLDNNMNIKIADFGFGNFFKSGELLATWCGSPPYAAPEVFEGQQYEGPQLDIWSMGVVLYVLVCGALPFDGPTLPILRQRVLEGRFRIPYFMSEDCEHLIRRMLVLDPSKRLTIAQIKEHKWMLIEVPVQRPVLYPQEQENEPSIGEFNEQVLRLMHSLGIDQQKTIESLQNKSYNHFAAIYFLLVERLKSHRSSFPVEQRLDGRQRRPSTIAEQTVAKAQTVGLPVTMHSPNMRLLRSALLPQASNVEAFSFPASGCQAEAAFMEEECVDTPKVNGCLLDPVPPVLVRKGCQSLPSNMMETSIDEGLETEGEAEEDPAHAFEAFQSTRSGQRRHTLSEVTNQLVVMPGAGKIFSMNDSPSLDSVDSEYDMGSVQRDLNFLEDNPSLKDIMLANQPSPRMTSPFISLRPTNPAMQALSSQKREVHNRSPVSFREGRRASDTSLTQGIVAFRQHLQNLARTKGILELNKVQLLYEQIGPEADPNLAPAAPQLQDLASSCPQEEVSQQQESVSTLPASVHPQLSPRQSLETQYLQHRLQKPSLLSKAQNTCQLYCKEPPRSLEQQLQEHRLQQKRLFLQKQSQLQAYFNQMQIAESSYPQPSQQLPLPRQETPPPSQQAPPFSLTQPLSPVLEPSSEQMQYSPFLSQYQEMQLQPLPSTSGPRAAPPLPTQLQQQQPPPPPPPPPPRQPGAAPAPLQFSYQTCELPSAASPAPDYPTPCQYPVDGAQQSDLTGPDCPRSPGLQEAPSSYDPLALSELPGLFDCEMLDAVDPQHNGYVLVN
# Sequence of DYRK1B (human) (Q9Y463 whole entry, looked up): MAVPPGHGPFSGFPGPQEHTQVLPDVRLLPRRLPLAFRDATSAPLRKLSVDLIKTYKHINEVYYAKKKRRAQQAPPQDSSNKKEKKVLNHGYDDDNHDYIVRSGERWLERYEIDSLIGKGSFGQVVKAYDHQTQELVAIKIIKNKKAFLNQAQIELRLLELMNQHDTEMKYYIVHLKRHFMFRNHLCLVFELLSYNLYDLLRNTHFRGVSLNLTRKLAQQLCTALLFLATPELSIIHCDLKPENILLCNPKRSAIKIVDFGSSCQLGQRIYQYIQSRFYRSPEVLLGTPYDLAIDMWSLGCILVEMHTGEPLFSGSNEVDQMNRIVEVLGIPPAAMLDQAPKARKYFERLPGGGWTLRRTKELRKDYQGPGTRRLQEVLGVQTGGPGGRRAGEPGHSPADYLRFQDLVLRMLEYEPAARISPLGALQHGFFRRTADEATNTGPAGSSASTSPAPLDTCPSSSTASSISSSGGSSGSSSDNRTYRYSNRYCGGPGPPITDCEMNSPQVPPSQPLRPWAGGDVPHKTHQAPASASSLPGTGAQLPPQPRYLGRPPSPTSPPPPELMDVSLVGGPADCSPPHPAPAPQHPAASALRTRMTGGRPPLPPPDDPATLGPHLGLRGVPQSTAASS
# Sequence of ACVR1 (human) (Q04771 whole entry, looked up): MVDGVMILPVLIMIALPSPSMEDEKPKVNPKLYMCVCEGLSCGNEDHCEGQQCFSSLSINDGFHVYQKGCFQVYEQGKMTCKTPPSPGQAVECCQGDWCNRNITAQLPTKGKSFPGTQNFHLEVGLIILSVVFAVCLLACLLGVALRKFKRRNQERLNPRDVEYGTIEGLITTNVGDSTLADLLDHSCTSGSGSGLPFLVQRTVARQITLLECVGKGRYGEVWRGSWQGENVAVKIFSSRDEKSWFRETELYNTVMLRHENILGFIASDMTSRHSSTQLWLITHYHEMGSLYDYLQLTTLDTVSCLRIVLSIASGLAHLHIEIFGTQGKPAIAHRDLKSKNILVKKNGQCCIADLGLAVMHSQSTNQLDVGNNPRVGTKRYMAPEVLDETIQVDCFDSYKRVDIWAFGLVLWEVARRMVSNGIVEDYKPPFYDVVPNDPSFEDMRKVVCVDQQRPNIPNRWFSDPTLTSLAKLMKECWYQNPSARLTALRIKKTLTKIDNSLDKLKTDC
# Sequence of DYRK4 (human) (Q9NR20 whole entry, looked up): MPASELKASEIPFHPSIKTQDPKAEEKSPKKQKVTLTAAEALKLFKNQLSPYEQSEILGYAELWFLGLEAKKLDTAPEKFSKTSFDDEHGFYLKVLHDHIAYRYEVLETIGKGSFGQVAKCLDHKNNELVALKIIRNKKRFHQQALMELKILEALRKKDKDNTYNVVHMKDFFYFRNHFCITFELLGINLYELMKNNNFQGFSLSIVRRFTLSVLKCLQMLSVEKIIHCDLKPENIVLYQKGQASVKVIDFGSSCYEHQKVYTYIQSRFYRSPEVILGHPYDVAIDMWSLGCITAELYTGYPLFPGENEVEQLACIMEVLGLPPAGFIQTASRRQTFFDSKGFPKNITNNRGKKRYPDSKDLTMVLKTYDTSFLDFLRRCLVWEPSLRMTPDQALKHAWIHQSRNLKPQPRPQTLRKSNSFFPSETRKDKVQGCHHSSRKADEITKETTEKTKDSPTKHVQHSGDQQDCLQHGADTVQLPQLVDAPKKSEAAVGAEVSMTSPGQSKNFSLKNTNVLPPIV
# Sequence of CDK5 CDK5R1 p25 (human) (Q00535 whole entry, looked up): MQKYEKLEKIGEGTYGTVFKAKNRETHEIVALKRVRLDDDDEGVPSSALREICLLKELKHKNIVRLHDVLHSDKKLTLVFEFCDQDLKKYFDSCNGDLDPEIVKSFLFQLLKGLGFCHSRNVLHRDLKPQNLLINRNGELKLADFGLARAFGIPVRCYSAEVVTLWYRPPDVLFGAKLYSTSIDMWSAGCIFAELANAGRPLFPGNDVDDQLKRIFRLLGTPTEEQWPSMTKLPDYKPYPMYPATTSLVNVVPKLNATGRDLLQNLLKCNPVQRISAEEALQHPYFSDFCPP
# Sequence of CDK5 CDK5R1 p25 (human) (Q15078 whole entry, looked up): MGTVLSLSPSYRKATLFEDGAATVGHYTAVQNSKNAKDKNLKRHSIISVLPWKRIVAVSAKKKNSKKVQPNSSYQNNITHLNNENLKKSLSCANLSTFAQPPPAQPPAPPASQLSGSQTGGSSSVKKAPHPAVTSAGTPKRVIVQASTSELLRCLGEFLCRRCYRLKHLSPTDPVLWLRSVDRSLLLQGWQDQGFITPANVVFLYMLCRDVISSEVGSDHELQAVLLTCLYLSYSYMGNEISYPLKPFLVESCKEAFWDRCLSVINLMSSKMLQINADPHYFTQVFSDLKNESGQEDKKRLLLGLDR
structure (smiles),measurement,setting,value
c1ccc(-c2n[nH]cc2-c2ccnc3ccccc23)nc1,residual activity,ABL1 (human),77.1%
same,residual activity,ACVR1 (human),106%
same,residual activity,ADRBK2 (human),103%
same,residual activity,AKT3 (human),92.6%
same,residual activity,BLK (human),99.9%
same,residual activity,BRSK1 (human),99%
same,residual activity,CAMK1G (human),102%
same,residual activity,CDC42BPB (human),102%
same,residual activity,CDK3 CCNE1 (human),94.2%
same,residual activity,CDK5 CDK5R1 p25 (human),97.2%
same,residual activity,CDK7 CCNH MNAT1 (human),104%
same,residual activity,CSNK1D (human),44.2%
same,residual activity,CSNK1G2 (human),103%
same,residual activity,CSNK2A1 (human),96.3%
same,residual activity,DAPK3 (human),101%
same,residual activity,DYRK1A (human),90.9%
same,residual activity,DYRK1B (human),102%
same,residual activity,DYRK4 (human),104%
same,residual activity,EPHA5 (human),94.9%
same,residual activity,EPHA7 (human),91.4%
same,residual activity,FGFR4 (human),80.6%
same,residual activity,FLT3 (human),91.2%
same,residual activity,GRK4 (human),94.3%
same,residual activity,IGF1R (human),102%
same,residual activity,MAP4K5 (human),87.4%
same,residual activity,MAPK11 (human),106%
same,residual activity,MYLK2 (human),98.3%
same,residual activity,NEK2 (human),97%
same,residual activity,NEK3 (human),90.2%
same,residual activity,PBK (human),91.9%
same,residual activity,PLK3 (human),91.7%
same,residual activity,PRKCB2 (human),92.1%
same,residual activity,RIPK2 (human),64.7%
same,residual activity,ROS1 (human),102%
same,residual activity,RPS6KA2 KD1 KD2 (human),96.3%
same,residual activity,RPS6KA5 KD2 (human),102%
same,residual activity,SGK3 (human),97.4%
same,residual activity,SIK2 (human),94.8%
same,residual activity,TLK2 (human),98.6%
same,residual activity,TSSK1B (human),104%
same,residual activity,WEE1 (human),91.1%
Nc1ncnc2[nH]nc(Nc3ccc(F)cc3)c12,residual activity,ABL1 (human),88.1%
same,residual activity,ACVR1 (human),127%
same,residual activity,ADRBK2 (human),102%
same,residual activity,AKT3 (human),104%
same,residual activity,BLK (human),101%
same,residual activity,BRSK1 (human),63%
same,residual activity,CAMK1G (human),97.2%
same,residual activity,CDC42BPB (human),106%
same,residual activity,CDK3 CCNE1 (human),104%
same,residual activity,CDK5 CDK5R1 p25 (human),82.5%
same,residual activity,CDK7 CCNH MNAT1 (human),98.4%
same,residual activity,CSNK1D (human),67.7%
same,residual activity,CSNK1G2 (human),95.7%
same,residual activity,CSNK2A1 (human),89.9%
same,residual activity,DAPK3 (human),124%
same,residual activity,DYRK1A (human),86.4%
same,residual activity,DYRK1B (human),99.2%
same,residual activity,DYRK4 (human),104%
same,residual activity,EPHA5 (human),87%
same,residual activity,EPHA7 (human),101%
same,residual activity,FGFR4 (human),107%
same,residual activity,FLT3 (human),78.3%
same,residual activity,GRK4 (human),98.8%
same,residual activity,IGF1R (human),104%
same,residual activity,MAP4K5 (human),52%
same,residual activity,MAPK11 (human),108%
same,residual activity,MYLK2 (human),87.3%
same,residual activity,NEK2 (human),89.3%
same,residual activity,NEK3 (human),102%
same,residual activity,PBK (human),87.6%
same,residual activity,PLK3 (human),98%
same,residual activity,PRKCB2 (human),105%
same,residual activity,RIPK2 (human),68.7%
same,residual activity,ROS1 (human),99.9%
same,residual activity,RPS6KA2 KD1 KD2 (human),70.6%
same,residual activity,RPS6KA5 KD2 (human),96.7%
same,residual activity,SGK3 (human),102%
same,residual activity,SIK2 (human),78.7%
same,residual activity,TLK2 (human),79%
same,residual activity,TSSK1B (human),96.4%
same,residual activity,WEE1 (human),93.9%
CCN(CC)CCNC(=O)c1c(C)[nH]c(/C=C2\C(=O)Nc3ccc(Cl)cc32)c1C,residual activity,ABL1 (human),24.7%
same,residual activity,ACVR1 (human),108%
same,residual activity,ADRBK2 (human),97.8%
same,residual activity,AKT3 (human),84.2%
same,residual activity,BLK (human),15.8%
same,residual activity,BRSK1 (human),36.5%
same,residual activity,CAMK1G (human),49.5%
same,residual activity,CDC42BPB (human),96.1%
same,residual activity,CDK3 CCNE1 (human),88.3%
same,residual activity,CDK5 CDK5R1 p25 (human),95.1%
same,residual activity,CDK7 CCNH MNAT1 (human),72.8%
same,residual activity,CSNK1D (human),49.7%
same,residual activity,CSNK1G2 (human),45.2%
same,residual activity,CSNK2A1 (human),91.4%
same,residual activity,DAPK3 (human),54.3%
same,residual activity,DYRK1A (human),47.2%
same,residual activity,DYRK1B (human),47.5%
same,residual activity,DYRK4 (human),97.9%
same,residual activity,EPHA5 (human),90.4%
same,residual activity,EPHA7 (human),67.1%
same,residual activity,FGFR4 (human),70.5%
same,residual activity,FLT3 (human),0.782%
same,residual activity,GRK4 (human),80.8%
same,residual activity,IGF1R (human),35.2%
same,residual activity,MAP4K5 (human),0.833%
same,residual activity,MAPK11 (human),100%
same,residual activity,MYLK2 (human),10%
same,residual activity,NEK2 (human),77.2%
same,residual activity,NEK3 (human),94%
same,residual activity,PBK (human),104%
same,residual activity,PLK3 (human),89.8%
same,residual activity,PRKCB2 (human),110%
same,residual activity,RIPK2 (human),84.1%
same,residual activity,ROS1 (human),43.9%
same,residual activity,RPS6KA2 KD1 KD2 (human),10%
same,residual activity,RPS6KA5 KD2 (human),59%
same,residual activity,SGK3 (human),103%
same,residual activity,SIK2 (human),42.7%
same,residual activity,TLK2 (human),79.6%
same,residual activity,TSSK1B (human),8.45%
same,residual activity,WEE1 (human),94.8%
